Source: patent US20200339509A1, “Non-Coordinating Anion Type Indolinium Activators in Aliphatic and Alicyclic Hydrocarbon Solvents” (ExxonMobil Chemical Patents Inc., priority 2019, published 2020)
“And” between values parts separate entries of the source, which are not always exact repeats. Equal values may be shown once.

Legend:
[1] = Propylene homopolymerization in parallel pressure reactor with the indicated activator; conditions: propylene polymerization; 30 nmol catalyst MCN-1, 1.1 equivalents activator, 100° C., 150 psi propylene
Experimental: Solutions of the metal complexes and activators were prepared in a drybox using toluene or methylcyclohexane. Concentrations were typically 0.2 mmol/L. Tri-n-octylaluminum (TNOAL, neat, AkzoNobel) was used as a scavenger as indicated. Concentration of the TNOAL solution in toluene ranged from 0.5 to 2.0 mmol/L.
Polymerizations were carried out in a parallel pressure reactor according to common laboratory techniques, as generally described in U.S. Pat. Nos. 6,306,658; 6,455,316; 6,489,168; WO 00/09255; consistent with the procedures described by Murphy, V. et al. (2003) “A Fully Integrated High-Throughput Screening Methodology for the Discovery of New Polyolefin Catalysts: Discovery of a New Class of High Temperature Single-Site Group (IV) Copolymerization Catalysts,” J. Am. Chem. Soc., v. 125, pp. 4306-4317, each of which is fully incorporated herein by reference. The experiments were conducted in an inert atmosphere (N2) drybox using autoclaves equipped with an external heater for temperature control, glass inserts (internal volume of reactor=23.5 mL for C2 and C2/C8; 22.5 mL for C3 runs), septum inlets, regulated supply of nitrogen, ethylene and propylene, and equipped with disposable PEEK mechanical stirrers (800 RPM). The autoclaves were prepared by purging with dry nitrogen at 110° C. or 115° C. for 5 hours and then at 25° C. for 5 hours. Although the specific quantities, temperatures, solvents, reactants, reactant ratios, pressures, and other variables are frequently changed from one polymerization run to the next, the following describes a typical polymerization performed in a parallel pressure reactor. […]
The catalyst and activator solutions for the comparative data were all prepared in toluene. […] The resultant polymer was analyzed by Rapid GPC (see below) to determine the molecular weight, by FT-IR (see below) to determine percent octene incorporation, and by DSC (see below) to determine melting point (Tm).
Equivalence is determined based on the mole equivalents relative to the moles of the transition metal in the catalyst complex. […]

[2] = Solubility study of the activators (saturated solution in aliphatic/alicyclic solvent); assay type: physicochemical; conditions: 25° C., concentration of saturated solution; for Solubility limit in MeCy: MeCy (methylcyclohexane)
Experimental: The solubility was determined using a saturated solution of the activator prepared by slowly adding the solvent to a pre-weighed amount of the activator. The final volume was determined as the minimum amount of solvent required to convert the heterogenous mixture into a homogeneous solution. The concentration of the saturated solution is presented in millimoles of activator per liter of solution (mM). Alternatively, a mixture of the activator was prepared by adding the solvent to an excess amount of activator. The resulting slurry was separated from the undissolved solids by decanting the mixture into a tared vial. Solvent was then added dropwise until the mixture became a homogeneous solution. The mass of the final solution was measured and then the solvent was evaporated to dryness to obtain the mass of the activator. The concentration of the saturated solution is presented in millimoles of activator per liter of solution (mM).

Compound	activity [1]	Solubility limit in MeCy [2] [µM]	Solubility limit in i-hexane [2] [µM]
1-methylindolinium tetrakis(heptafluoronaphthalen-2-yl)borate [MIH-BF28]	64 kg/mmol/h and 39 kg/mmol/h and 46 kg/mmol/h	–	–
C[NH+](C)c1ccccc1.Fc1c(F)c(F)c([B-](c2c(F)c(F)c(F)c(F)c2F)(c2c(F)c(F)c(F)c(F)c2F)c2c(F)c(F)c(F)c(F)c2F)c(F)c1F [DMAH-BF20, N,N-Dimethylanilinium tetrakis(pentafluorophenyl) borate, reference compound]	–	<100	<100
CCCCCCCCCCC1C[NH+](C)c2ccccc21.Fc1c(F)c(F)c2c(F)c([B-](c3c(F)c(F)c4c(F)c(F)c(F)c(F)c4c3F)(c3c(F)c(F)c4c(F)c(F)c(F)c(F)c4c3F)c3c(F)c(F)c4c(F)c(F)c(F)c(F)c4c3F)c(F)c(F)c2c1F [MDIH-BF28, 3-decyl-1-methylindolin-1-ium BF-28]	–	10100	1000
C[NH+]1CCc2ccccc21.Fc1c(F)c(F)c([B-](c2c(F)c(F)c(F)c(F)c2F)(c2c(F)c(F)c(F)c(F)c2F)c2c(F)c(F)c(F)c(F)c2F)c(F)c1F [MIH-BF20, 1-methylindolinium tetrakis(pentafluorophenyl) borate]	7 kg/mmol/h	5300	<100
N,N-dimethyl anilinium tetrakis(heptafluoronaphthalen-2-yl)borate [DMAH-BF28, reference compound]	126 kg/mmol/h and 182 kg/mmol/h and 196 kg/mmol/h and 164 kg/mmol/h	–	–
